The source of these data is ChEMBL document CHEMBL1799935, “Identification of new inhibitors of protein kinase R guided by statistical modeling” (Bioorg Med Chem Lett, 2011).

Calls of active or inactive are those of the source. The rule behind the calls is not given here. Bounds are passed on as bounds.

As usually defined, the IC50 is the concentration that inhibits the measured activity by half. For orientation: Ki means a dissociation constant, usually derived from enzyme kinetics or from competition with a known ligand.

The subject of the first series is Vero. The experiment in a line: Cytotoxicity against african green monkey Vero cells assessed as cell survival at up to 100 uM after 48 hrs by MTS assay. Particulars: chlorocebus sabaeus. In kind it is cell-based. In general terms: Formazan colour is commonly taken as a measure of viable cells.
`Cc1[nH]c2ccccc2c1-c1ccnc(NCCc2c[nH]c3ccccc23)n1`: the Activity result is given as “Non-toxic”.

System in another series: not listed separately
The experiment in a line: Cytotoxicity against mouse bone marrow macrophages assessed as cell survival at up to 100 uM after 48 hrs by MTS assay. Particulars: macrophage. Type of series: cell-based.
`Cc1[nH]c2ccccc2c1-c1ccnc(NCCc2c[nH]c3ccccc23)n1`: the Activity result is “Non-toxic”.

The target in the next series is T1, Interferon-induced, double-stranded RNA-activated protein kinase (Homo sapiens, UniProt P19525). The experiment in a line: Inhibition of human recombinant PKR autophosphorylation using poly[I:C] after 10 mins by luminescent assay.
T1 sequence (P19525 whole entry): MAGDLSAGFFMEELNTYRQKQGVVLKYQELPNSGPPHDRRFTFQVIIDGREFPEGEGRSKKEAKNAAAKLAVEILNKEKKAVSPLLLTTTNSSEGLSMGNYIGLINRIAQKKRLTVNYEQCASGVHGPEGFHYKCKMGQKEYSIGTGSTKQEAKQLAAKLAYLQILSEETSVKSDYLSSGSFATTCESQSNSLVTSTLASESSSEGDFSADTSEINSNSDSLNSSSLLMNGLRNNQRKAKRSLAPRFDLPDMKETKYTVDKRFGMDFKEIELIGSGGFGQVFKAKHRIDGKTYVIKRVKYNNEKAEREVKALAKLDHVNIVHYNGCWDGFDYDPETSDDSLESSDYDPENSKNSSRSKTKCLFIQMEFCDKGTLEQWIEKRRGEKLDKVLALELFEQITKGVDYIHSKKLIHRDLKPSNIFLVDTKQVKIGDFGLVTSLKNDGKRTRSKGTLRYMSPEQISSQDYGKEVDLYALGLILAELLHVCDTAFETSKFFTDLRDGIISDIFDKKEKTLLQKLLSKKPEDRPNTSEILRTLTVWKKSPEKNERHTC
Details: not given
As to `NCc1ccc(C(=O)N/N=C2\C(=O)Nc3ccc(Br)cc32)cc1`, the IC50 is 12 µM.
Still for that read-out and setting: for `O=C1NC(=O)c2c1c1c3ccccc3[nH]c1c1[nH]c3cc(Br)ccc3c21` the value was 6 µM; for `Cc1[nH]c2ccccc2c1-c1ccnc(Nc2ccc(F)cc2)n1`, 0.15 µM; for `O=C1NC(=O)/C(=C/c2c[nH]c3ccccc23)N1`, 10.5 µM.
Still for that read-out and setting: then `Cc1[nH]c2ccccc2c1-c1ccnc(NCCO)n1`, with 11 µM.
Take `COC(=O)c1ccc2c(-c3ccnc(NCCO)n3)c[nH]c2c1`: the IC50 is 9 µM.
Same read-out and setting: for `CCn1cnc2c(Nc3cccc(Cl)c3)nc(N[C@@H]3CCCC[C@@H]3N)nc21` the value was 3 µM.
On the same count and under the same terms, then `Cc1[nH]c2ccccc2c1-c1ccnc(Nc2ccc(F)c(F)c2)n1`, with 1.5 µM.
On the same count and under the same terms, for `N#CCCc1ccc2c(c1)C1Nc3ccc([N+](=O)[O-])cc3C1CC(=O)N2` (configuration not stated) the value was 3.5 µM.
Take `Nc1cccc(-c2cc3c(Oc4cccc(O)c4)ncnc3[nH]2)c1`: the 50% inhibitory concentration (IC50) turned out to be 4 µM.
Still for that read-out and setting: for `CCN(CC)C(=O)c1ccc(Nc2nc(OCC3CCCCC3)c3nc[nH]c3n2)cc1` the value was 2 µM; for `Nc1nc(Nc2ccc(S(N)(=O)=O)cc2)nn1C(=S)Nc1c(F)cccc1F`, 1.6 µM.
On the same count and under the same terms, then `Cc1[nH]c2ccc(Cl)cc2c1-c1ccnc(N2CCCC2)n1`, with > 100 µM.
Same read-out and setting: then `c1ccc(-c2[nH]c3ccccc3c2-c2ccnc(NCCN3CCOCC3)n2)cc1`, with 12 µM.
As to `Cc1[nH]c2ccc(Cl)cc2c1-c1ccnc(NC2CCCC2)n1`, the IC50 was 8 µM.
Still for that read-out and setting: for `N#Cc1cnc2cnc(NCc3cccnc3)cc2c1Nc1ccc(F)c(Cl)c1` the value was 0.25 µM.
Still for that read-out and setting: for `COCCCNc1nccc(-c2c(C)[nH]c3ccc(Cl)cc23)n1` the value was 3 µM; for `Cc1cc(Nc2nc(-c3ccccc3)nc3ccccc23)[nH]n1`, 15 µM; for `C=C1NNC(=O)N=C1Nc1ccc2cn[nH]c2c1`, 16 µM.
Same read-out and setting: then `c1cc(-c2cnn3cc(-c4ccc(OCCN5CCCCC5)cc4)cnc23)ccn1` [DORSOMORPHIN], with 16 µM; and `Nc1n[nH]c2nc3ccccc3nc12` [QUINOXALINE1], with 6 µM; and `OCCNc1nccc(-c2c[nH]c3ccccc23)n1`, with 11 µM.
In the case of `COc1ccc(Nc2nccc(-c3c(C)[nH]c4ccc(OC)cc34)n2)cc1`, the IC50 is 55 µM.
`Cc1[nH]c2ccccc2c1-c1ccnc(N2CCN(c3ccc(F)cc3)CC2)n1`: the 50% inhibitory concentration (IC50) was > 100 µM.
Same read-out and setting: then `NC(=O)Nc1sc(-c2ccc(F)cc2)cc1C(N)=O`, with 0.25 µM; and `O=C1Nc2ccccc2/C1=C1/Nc2ccccc2/C1=N\OCCC(O)CO` (configuration not stated), with < 0.1 µM.
Consider `COCCCNc1nccc(-c2c(C)[nH]c3ccccc23)n1`, for which the IC50 is 1.5 µM.
Still for that read-out and setting: for `FC(F)(F)c1nnc2ccc(NCCc3c[nH]c4ccccc34)nn12` the value was 19 µM.
With `Cc1[nH]c2ccccc2c1-c1ccnc(NCc2cccnc2)n1`, the IC50 was determined as 45 µM.
The same measure, in the same setting: then `O=Nc1c(-c2c(O)[nH]c3ccccc23)[nH]c2ccccc12` [INDIRUBIN-3-MONOXIME], with < 0.1 µM.
Take `c1ccc2c(CCNc3nccc(-c4c[nH]nc4-c4ccncc4)n3)c[nH]c2c1`: the IC50 worked out at 51 µM.
On the same count and under the same terms, for `O=C1NC(=O)/C(=C/c2c[nH]c3ccc(Br)cc23)N1` the value was 4 µM; for `O=C(O)c1ccc2c3c1cccc3c(=O)n1c3ccccc3nc21`, < 0.1 µM.
Still for that read-out and setting: then `Cc1[nH]c2ccccc2c1-c1ccnc(Nc2cccc(Cl)c2)n1`, with 0.3 µM.
The same measure, in the same setting: for `Cc1[nH]c2ccccc2c1-c1ccnc(N2CCOCC2)n1` the value was 90 µM.
Take `O=C1Nc2cc(Br)ccc2/C1=C1/Nc2ccccc2/C1=N\O` [6BIO]: the half-maximal inhibitory concentration (IC50) came out at 0.6 µM.
Still for that read-out and setting: for `c1ccc(-c2[nH]c3ccccc3c2-c2ccnc(NC3CCCC3)n2)cc1` the value was > 100 µM; for `Cn1ncc2c(N3CCOCC3)nc(NCCc3c[nH]c4ccccc34)nc21` [TDR79432], 11 µM.
Still for that read-out and setting: then `c1ccc(-c2[nH]c3ccccc3c2-c2ccnc(NCc3cccnc3)n2)cc1`, with > 100 µM; and `COc1ccc2c(c1)/C(=C/c1cnc[nH]1)C(=O)N2` [SU-9516], with 5 µM; and `Cc1[nH]c2ccc(Cl)cc2c1-c1ccnc(NCCN2CCOCC2)n1`, with 12 µM.
Same read-out and setting: then `Nc1nc(Nc2ccc(OC(F)(F)F)cc2)c2nc[nH]c2n1`, with 20 µM.
Turning to `CN1CCN(c2ccc(Nc3ncnc4ccc([N+](=O)[O-])cc34)cc2)CC1`, the IC50 turned out to be 15 µM.
Still for that read-out and setting: for `O=C1NCc2c1c1c3ccccc3n3c1c1c2c2ccccc2n1C1CCC3O1` (configuration not stated) the value was 0.75 µM.
Same read-out and setting: then `Cc1[nH]c2ccccc2c1-c1ccnc(Nc2cccnc2)n1`, with 0.1 µM; and `Cc1[nH]c2ccccc2c1-c1ccnc(NC(CO)C(C)C)n1` (configuration not stated), with 50 µM.
Still for that read-out and setting: then `O=c1nncc(Nc2ccc3cn[nH]c3c2)[nH]1`, with 13 µM; and `CSc1cccc(N/C=C2\C(=O)Nc3ccccc32)c1`, with 2.5 µM; and `Nc1ncnc2[nH]nc(Nc3ccc(F)cc3)c12`, with 5 µM.
As for `COC(=O)c1ccc2c(-c3ccnc(SCCN(C)C)n3)c[nH]c2c1`, the half-inhibitory concentration (IC50) is > 100 µM.
For the compound `O=C1Cc2ccc(Oc3ccc4c(c3)NC(=O)C4)cc2N1`, the half-maximal inhibitory concentration (IC50) came out at 14 µM.
On the same count and under the same terms, then `O=C(Nc1cccc(Nc2nccc(Nc3cccc(C(F)(F)F)c3)n2)c1)C1CC1` [ANILINOPYRIMIDINE1], with 20 µM; and `COC(=O)[C@]1(O)C[C@@H]2O[C@@]1(C)n1c3ccccc3c3c4c(c5c6ccccc6n2c5c31)C(=O)NC4` (single isomer, unassigned), with < 0.1 µM; and `CN1C(=O)NC(=O)/C(=C\c2c[nH]c3ccc(O)cc23)C1=O`, with 3 µM.
On to `N#C/C(=C1/Nc2ccccc2S1)c1ccnc(NCCc2cccnc2)n1`, for which the 50% inhibitory concentration (IC50) was < 0.1 µM.
The same measure, in the same setting: for `COc1ccc2[nH]cc(-c3ccnc(NCCN4CCOCC4)n3)c2c1` the value was > 100 µM.
On the same count and under the same terms, for `O=C1NC(=O)c2c1c1c3ccccc3[nH]c1n1cncc21` [ISOGRANULATIMIDE] the value was < 0.1 µM.
Same read-out and setting: for `COc1ccc2c(c1)/C(=N/NC(=O)c1cc(Br)ccc1O)C(=O)N2` the value was 9.4 µM.
Regarding `O=C(O)/C=C/c1cc(Br)c(Br)c(Br)c1Br`, the concentration for half-maximal inhibition (IC50) amounted to 7 µM.
Regarding `Fc1ccc(Nc2nccc(-c3c(-c4ccccc4)[nH]c4ccccc34)n2)cc1`, the IC50 worked out at 7 µM.
The same measure, in the same setting: for `CC(C)n1cnc2c(Nc3cccc(Cl)c3)nc(NCCO)nc21` the value was 16 µM.
The same measure, in the same setting: for `COc1ccc2[nH]c(C)c(-c3ccnc(Nc4ccc(Cl)cc4)n3)c2c1` the value was 50 µM; for `Cc1[nH]c2ccc(Cl)cc2c1-c1ccnc(NCc2cccnc2)n1`, 48 µM.
Still for that read-out and setting: then `Cc1[nH]c2ccc(Cl)cc2c1-c1ccnc(Nc2ccc(N3CCN(C)CC3)cc2)n1`, with 0.1 µM.
As to `COc1ccc2[nH]c(C)c(-c3ccnc(NC4CCCC4)n3)c2c1`, the half-maximal inhibitory concentration (IC50) was found to be 1.5 µM.
On the same count and under the same terms, for `Cc1[nH]c2ccccc2c1-c1ccnc(Nc2ccccc2Cl)n1` the value was 19 µM; for `Cc1[nH]c2ccccc2c1-c1ccnc(NCCc2c[nH]c3ccccc23)n1`, 9 µM; for `Nc1nc(Nc2ccc(S(N)(=O)=O)cc2)nn1C(=O)Nc1c(F)cccc1F`, 8 µM.
The same measure, in the same setting: for `O=C1NC(=O)/C(=C\c2c[nH]c3ccccc23)N1` the value was 11 µM; for `COc1ccc2c(c1)[nH]c1c(N3CCN(C(N)=O)CC3)ncnc12`, 13 µM.
Still for that read-out and setting: for `Fc1ccc(N2CCN(c3nccc(-c4c[nH]c5ccccc45)n3)CC2)cc1` the value was > 100 µM.
On to `Cn1nc2c3c(cccc31)C(=O)c1ccccc1-2`, for which the IC50 came out at 12 µM.
On the same count and under the same terms, then `Cc1[nH]c2ccccc2c1-c1ccnc(Nc2ccc(Cl)cc2)n1`, with 0.6 µM; and `COC(=O)c1ccc2c(-c3ccnc(NCCN4CCOCC4)n3)c[nH]c2c1`, with 18 µM; and `Cc1[nH]c2ccccc2c1-c1ccnc(N2CCN(c3ccccn3)CC2)n1`, with > 100 µM.
Still for that read-out and setting: then `Oc1c2ccccc2c2c3c(cccc13)N=N2` [SP-600125], with 8 µM.
Take `Cc1[nH]c2ccccc2c1-c1ccnc(N2CCCC2)n1`: the half-inhibitory concentration (IC50) is > 100 µM.
The same measure, in the same setting: for `Cc1[nH]c2ccc(Cl)cc2c1-c1ccnc(N2CCN(c3ccc(F)cc3)CC2)n1` the value was > 100 µM.
The same measure, in the same setting: then `Cc1[nH]c2ccc(Cl)cc2c1-c1ccnc(Nc2cccc(Cl)c2)n1`, with 2.5 µM; and `C=C1NNC(=O)/C1=N\Nc1ccc(S(N)(=O)=O)cc1`, with 11 µM.

System in the next series: not listed separately
The experiment in a line: Cytotoxicity against mouse bone marrow macrophages assessed as cell survival at 30 uM after 24 hrs by photomicroscopy analysis. Type of series: cell-based. Particulars: macrophage.
As to `Cc1[nH]c2ccccc2c1-c1ccnc(NCCc2c[nH]c3ccccc23)n1`, the Activity entry is given as “Non-toxic”.

In the next series the target is T1, Interferon-induced, double-stranded RNA-activated protein kinase. The experiment in a line: Competitive inhibition of human recombinant PKR.
Details: not given
As to `Cc1[nH]c2ccccc2c1-c1ccnc(NCCc2c[nH]c3ccccc23)n1`, the inhibition constant (Ki) came out at 3.4 µM.

The target of the next series is T2, Interferon-induced, double-stranded RNA-activated protein kinase (Mus musculus) (UniProt Q03963).
T2 sequence (whole entry): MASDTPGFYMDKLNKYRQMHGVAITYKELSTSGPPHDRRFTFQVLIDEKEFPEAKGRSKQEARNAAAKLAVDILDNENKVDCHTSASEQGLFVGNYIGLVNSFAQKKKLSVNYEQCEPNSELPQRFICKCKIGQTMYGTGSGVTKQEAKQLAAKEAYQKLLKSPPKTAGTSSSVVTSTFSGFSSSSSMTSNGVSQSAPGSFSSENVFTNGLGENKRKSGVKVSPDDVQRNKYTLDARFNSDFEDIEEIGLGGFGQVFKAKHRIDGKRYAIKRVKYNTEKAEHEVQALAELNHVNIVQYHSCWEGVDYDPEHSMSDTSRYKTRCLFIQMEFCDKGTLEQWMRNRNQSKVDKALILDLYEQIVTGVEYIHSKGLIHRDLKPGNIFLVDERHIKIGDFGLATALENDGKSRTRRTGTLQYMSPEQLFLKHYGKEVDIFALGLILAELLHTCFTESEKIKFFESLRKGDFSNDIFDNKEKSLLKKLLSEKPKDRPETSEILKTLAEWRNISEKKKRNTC
The experiment in a line: Inhibition of poly[I:C]-induced PKR autophosphorylation mouse bone marrow macrophages treated immediately before addition of poly[I:C] by Western blotting.
Details: not given
Background: In western blotting, separated proteins are transferred to a membrane and probed.
As to `Cc1[nH]c2ccccc2c1-c1ccnc(NCCc2c[nH]c3ccccc23)n1`, the inhibition result was “Dose-dependent effect”.

A further series concerns the target T2, Interferon-induced, double-stranded RNA-activated protein kinase (Mus musculus). The experiment in a line: Inhibition of poly[I:C]-induced PKR autophosphorylation mouse bone marrow macrophages at 40 uM treated immediately before addition of poly[I:C] by Western blotting.
Details: not given
As to `c1ccc(-c2[nH]c3ccccc3c2-c2ccnc(NC3CCCC3)n2)cc1`, the inhibition entry is “inactive”.
On the same count and under the same terms, then `c1ccc(-c2[nH]c3ccccc3c2-c2ccnc(NCc3cccnc3)n2)cc1`, with “inactive”.
